Values of other authors in patent US9974722B2, “Reduced-ethanol mouth rinse formulations” (Johnson & Johnson Consumer Inc., priority 2016, dated 2018).

## CC1CCC(C(C)C)C(O)C1 (stereo not shown) [Menthol]
  solubility in alcohol: only slightly soluble
